Reference: patent US10793580B2, “Substituted pyrazoloazepin-8-ones and their use as phosphodiesterase inhibitors” (LEO Pharma A/S, priority 2016, dated 2020)

Molecular target: human PDE4D catalytic domain (Homo sapiens (Human), UniProt Q08499)
Assay: PDE4 Assay (TR-FRET, FAM-cAMP cleavage)
Format: biochemical
Settings: Table 16, Examples 277-296; read-out: PDE4 IC50 range
Experimental: The human PDE4D catalytic domain (UniProt no. Q08499 [S380-L740]) was incubated with a mixture of non-labelled cAMP (cyclic adenosine monophosphate) and fluorescein amidite (FAM) conjugated cAMP and titrated test or reference Compound. Following brief incubation the enzymatic reaction was stopped by addition of binding buffer containing nanoparticles with immobilized trivalent metal ions capable of binding 1) AMP phospho groups and 2) terbium (Tb) donor fluorophores. Subsequent excitation of the Tb donor triggers time-resolved FRET to adjacent FAM acceptor molecules resulting in light emission. In the presence of a PDE4 inhibitor, AMP generation was reduced resulting in a lower fluorescence signal. The cAMP phosphodiester is not bound by the detection system.
The results were calculated as the molar concentrations resulting in 50% inhibition of the substrate cleavage compared to controls samples, and are expressed as a range of IC50 (nM).

human PDE4D catalytic domain, sequence (Q08499 380-740): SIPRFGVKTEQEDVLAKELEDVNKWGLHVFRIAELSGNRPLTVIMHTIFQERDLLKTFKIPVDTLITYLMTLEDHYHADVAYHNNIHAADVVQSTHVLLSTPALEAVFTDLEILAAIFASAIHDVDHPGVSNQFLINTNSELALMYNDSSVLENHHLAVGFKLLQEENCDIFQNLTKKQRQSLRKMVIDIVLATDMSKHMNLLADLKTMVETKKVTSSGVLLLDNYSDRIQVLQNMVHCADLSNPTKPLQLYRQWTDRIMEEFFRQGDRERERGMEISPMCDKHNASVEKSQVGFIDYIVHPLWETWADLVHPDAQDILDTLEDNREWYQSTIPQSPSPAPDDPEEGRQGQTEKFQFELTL

| SMILES | IC50 |
| --- | --- |
| CCn1nc(C[C@@H](C)COC(=O)c2ccns2)c2c1C(=O)NCC1(CCOCC1)C2 [Example 283, [(2R)-3-(1-ethyl-8-oxo-spiro[6,7-dihydro-4H-pyrazolo[3,4-c]azepine-5,4′-tetrahydropyran]-3-yl)-2-methyl-propyl] isothiazole-5-carboxylate] | < 100 nM |
| CCn1nc(C[C@@H](C)COC(=O)C2CCOCC2)c2c1C(=O)NCC1(CCOCC1)C2 [Example 287, [(2R)-3-(1-ethyl-8-oxo-spiro[6,7-dihydro-4H-pyrazolo[3,4-c]azepine-5,4′-tetrahydropyran]-3-yl)-2-methyl-propyl] tetrahydropyran-4-carboxylate] | < 100 nM |

Same assay, conditions: Table 17, Examples 297-316; read-out: PDE4 IC50 range

| SMILES | IC50 |
| --- | --- |
| CCn1nc(CC(C)(C)COC(=O)c2cncs2)c2c1C(=O)NCC1(CCOCC1)C2 [Example 306, [3-(1-ethyl-8-oxo-spiro[6,7-dihydro-4H-pyrazolo[3,4-c]azepine-5,4′-tetrahydro-pyran]-3-yl)-2,2-dimethyl-propyl] thiazole-5-carboxylate] | < 100 nM |

Same assay, conditions: human PDE4D catalytic domain (UniProt Q08499 [S380-L740]); 50% inhibition of substrate cleavage; read-out: PDE4 IC50 range

| SMILES | IC50 |
| --- | --- |
| CCn1nc(C[C@@H](C)COC(=O)c2ccc(S(=O)(=O)N3CCN(C(C)=O)CC3)cc2)c2c1C(=O)NCC1(CCOCC1)C2 [Example 167, [(2R)-3-(1-ethyl-8-oxo-spiro[6,7-dihydro-4H-pyrazolo[3,4-c]azepine-5,4′-tetrahydropyran]-3-yl)-2-methyl-propyl] 4-(4-acetylpiperazin-1-yl)sulfonylbenzoate] | < 100 nM |
| CCn1nc(CCCOC(=O)c2ccc(C(=O)N3CCN(C(C)=O)CC3)cc2)c2c1C(=O)NCC1(CCOCC1)C2 [Example 111, 3-(1-ethyl-8-oxo-spiro[6,7-dihydro-4H-pyrazolo[3,4-c]azepine-5,4′-tetrahydropyran]-3-yl)propyl 4-(4-acetylpiperazine-1-carbonyl)benzoate] | < 100 nM |
| CCn1nc(CC(C)(C)COC(=O)c2ccc(C(C)=O)cc2)c2c1C(=O)NCC1(CCOCC1)C2 [Example 200, [3-(1-ethyl-8-oxo-spiro[6,7-dihydro-4H-pyrazolo[3,4-c]azepine-5,4′-tetrahydropyran]-3-yl)-2,2-dimethyl-propyl] 4-acetylbenzoate] | < 100 nM |
| CCn1nc(CC(C)(C)COC(=O)c2ccccc2C)c2c1C(=O)NCC1(CCOCC1)C2 [Example 189, [3-(1-ethyl-8-oxo-spiro[6,7-dihydro-4H-pyrazolo[3,4-c]azepine-5,4′-tetrahydropyran]-3-yl)-2,2-dimethyl-propyl] 2-methylbenzoate] | < 100 nM |
| CCn1nc(CCCOC(=O)C2CCOC2)c2c1C(=O)NCC1(CCOCC1)C2 (stereo not shown) [Example 236, 3-(1-ethyl-8-oxo-spiro[6,7-dihydro-4H-pyrazolo[3,4-c]azepine-5,4′-tetrahydro-pyran]-3-yl)propyl tetrahydrofuran-3-carboxylate] | < 100 nM |
| CCn1nc(CCCOC(=O)c2cccc(S(=O)(=O)NC)c2)c2c1C(=O)NCC1(CCOCC1)C2 [Example 78, 3-(1-ethyl-8-oxo-spiro[6,7-dihydro-4H-pyrazolo[3,4-c]azepine-5,4′-tetrahydro-pyran]-3-yl)propyl 3-(methylsulfamoyl)benzoate] | < 100 nM |
| CCn1nc(CCCOC(=O)c2ccc(F)cc2C(F)(F)F)c2c1C(=O)NCC1(CCOCC1)C2 [Example 71, 3-(1-ethyl-8-oxo-spiro[6,7-dihydro-4H-pyrazolo[3,4-c]azepine-5,4′-tetrahydro-pyran]-3-yl)propyl 4-fluoro-2-(trifluoromethyl)benzoate] | < 100 nM |
| CCn1nc(CCCOC(=O)c2ccc(C(C)=O)cc2)c2c1C(=O)NCC1(CCOCC1)C2 [Example 27, 3-(1-ethyl-8-oxo-spiro[6,7-dihydro-4H-pyrazolo[3,4-c]azepine-5,4′-tetrahydropyran]-3-yl)propyl 4-acetylbenzoate] | < 100 nM |
| CCn1nc(C[C@@H](C)COC(=O)c2cccc(S(=O)(=O)CC)c2)c2c1C(=O)NCC1(CCOCC1)C2 [Example 156, [(2R)-3-(1-ethyl-8-oxo-spiro[6,7-dihydro-4H-pyrazolo[3,4-c]azepine-5,4′-tetrahydropyran]-3-yl)-2-methyl-propyl] 3-ethylsulfonylbenzoate] | < 100 nM |
| CCn1nc(CCCCOC(=O)c2cnc(C)nc2)c2c1C(=O)NCC1(CCOCC1)C2 [Example 271, 4-(1-ethyl-8-oxo-spiro[6,7-dihydro-4H-pyrazolo[3,4-c]azepine-5,4′-tetrahydropyran]-3-yl)butyl 2-methylpyrimidine-5-carboxylate] | < 100 nM |
| CCn1nc(C[C@@H](C)COC(=O)c2cccc(F)c2)c2c1C(=O)NCC1(CCOCC1)C2 [Example 143, [(2R)-3-(1-ethyl-8-oxo-spiro[6,7-dihydro-4H-pyrazolo[3,4-c]azepine-5,4′-tetrahydropyran]-3-yl)-2-methyl-propyl] 3-fluorobenzoate] | < 100 nM |
| CCn1nc(CC(C)(C)COC(=O)c2cccc(OC)c2)c2c1C(=O)NCC1(CCOCC1)C2 [Example 196, [3-(1-ethyl-8-oxo-spiro[6,7-dihydro-4H-pyrazolo[3,4-c]azepine-5,4′-tetrahydropyran]-3-yl)-2,2-dimethyl-propyl] 3-methoxybenzoate] | < 100 nM |
| CCn1nc(CCCOC(=O)c2ccc(C(=O)N3CCCCC3)cc2)c2c1C(=O)NCC1(CCOCC1)C2 [Example 108, 3-(1-ethyl-8-oxo-spiro[6,7-dihydro-4H-pyrazolo[3,4-c]azepine-5,4′-tetrahydro-pyran]-3-yl)propyl 4-(piperidine-1-carbonyl)benzoate] | < 100 nM |
| CCn1nc(CCOC(=O)C2CCCC2)c2c1C(=O)NCC1(CCOCC1)C2 [Example 134, 2-(1-ethyl-8-oxo-spiro-[6,7-dihydro-4H-pyrazolo-[3,4-c]azepine-5,4′-tetra-hydropyran]-3-yl)ethyl cyclopentanecarboxylate] | < 100 nM |
| CCn1nc(C[C@@H](C)COC(=O)c2cccc(C(C)=O)c2)c2c1C(=O)NCC1(CCOCC1)C2 [Example 154, [(2R)-3-(1-ethyl-8-oxo-spiro[6,7-dihydro-4H-pyrazolo[3,4-c]azepine-5,4′-tetrahydropyran]-3-yl)-2-methyl-propyl] 3-acetylbenzoate] | < 100 nM |
| CCn1nc(CCCOC(=O)c2ccc(C)c(C)c2)c2c1C(=O)NCC1(CCOCC1)C2 [Example 13, 3-(1-ethyl-8-oxo-spiro[6,7-dihydro-4H-pyrazolo[3,4-c]azepine-5,4′-tetrahydropyran]-3-yl) propyl 3,4-dimethylbenzoate] | < 100 nM |
| CCn1nc(CCCOC(=O)c2ccc(Cl)c(OC)c2)c2c1C(=O)NCC1(CCOCC1)C2 [Example 55, 3-(1-ethyl-8-oxo-spiro[6,7-dihydro-4H-pyrazolo[3,4-c]azepine-5,4′-tetrahydropyran]-3-yl)propyl 4-chloro-3-methoxy-benzoate] | < 100 nM |
| CCn1nc(CCCOC(=O)c2cccc(C(=O)N(C)C)c2)c2c1C(=O)NCC1(CCOCC1)C2 [Example 115, 3-(1-ethyl-8-oxo-spiro[6,7-dihydro-4H-pyrazolo[3,4-c]azepine-5,4′-tetrahydropyran]-3-yl)propyl 3-(dimethyl-carbamoyl)benzoate] | < 100 nM |
| CCn1nc(CC(C)(C)COC(=O)c2cccc(S(=O)(=O)CC)c2)c2c1C(=O)NCC1(CCOCC1)C2 [Example 204, [3-(1-ethyl-8-oxo-spiro[6,7-dihydro-4H-pyrazolo[3,4-c]azepine-5,4′-tetrahydropyran]-3-yl)-2,2-dimethyl-propyl] 3-ethylsulfonylbenzoate] | < 100 nM |
| CCn1nc(CC(C)(C)COC(=O)c2cccc(C(=O)N(C)C)c2)c2c1C(=O)NCC1(CCOCC1)C2 [Example 229, [3-(1-ethyl-8-oxo-spiro[6,7-dihydro-4H-pyrazolo[3,4-c]azepine-5,4′-tetrahydro-pyran]-3-yl)-2,2-dimethyl-propyl] 3-(dimethyl-carbamoyl)benzoate] | < 100 nM |
| CCn1nc(CCCOC(=O)c2ccc(Cl)c(F)c2)c2c1C(=O)NCC1(CCOCC1)C2 [Example 48, 3-(1-ethyl-8-oxo-spiro[6,7-dihydro-4H-pyrazolo[3,4-c]azepine-5,4′-tetrahydropyran]-3-yl)propyl 4-chloro-3-fluoro-benzoate] | < 100 nM |
| CCn1nc(CC(C)(C)COC(=O)c2ccc(S(=O)(=O)NC)cc2)c2c1C(=O)NCC1(CCOCC1)C2 [Example 205, [3-(1-ethyl-8-oxo-spiro[6,7-dihydro-4H-pyrazolo[3,4-c]azepine-5,4′-tetrahydropyran]-3-yl)-2,2-dimethyl-propyl] 4-(methylsulfamoyl)benzoate] | < 100 nM |
| CCn1nc(CCCOC(=O)c2ccc(S(=O)(=O)N3CCN(C(C)=O)CC3)cc2)c2c1C(=O)NCC1(CCOCC1)C2 [Example 102, 3-(1-ethyl-8-oxo-spiro[6,7-dihydro-4H-pyrazolo[3,4-c]azepine-5,4′-tetrahydropyran]-3-yl)propyl 4-(4-acetylpiperazin-1-yl)sulfonylbenzoate] | < 100 nM |
| CCn1nc(CC(C)(C)COC(=O)c2ccc(S(=O)(=O)C3CCCC3)cc2)c2c1C(=O)NCC1(CCOCC1)C2 [Example 209, [3-(1-ethyl-8-oxo-spiro[6,7-dihydro-4H-pyrazolo[3,4-c]azepine-5,4′-tetrahydropyran]-3-yl)-2,2-dimethyl-propyl] 4-cyclopentylsulfonylbenzoate] | < 100 nM |
| CCn1nc(CCCOC(=O)c2cc(Cl)cc(C(F)(F)F)c2)c2c1C(=O)NCC1(CCOCC1)C2 [Example 90, 3-(1-ethyl-8-oxo-spiro[6,7-dihydro-4H-pyrazolo[3,4-c]azepine-5,4′-tetrahydro-pyran]-3-yl)propyl 3-chloro-5-(trifluoromethyl)benzoate] | < 100 nM |
